# Experimental data reported in publication PMC7218169 (Frontiers in Immunology, 2020).
# Read-outs that look alike come from different tables or passages of the source.
# Key:
# [1] = tested on: early-treated HIV-1-infected individuals; conditions: in vivo
# CD3+ T cells = type: in vivo, human; conditions: over the three RMD doses; increases 3 days after each dose, maintained up to 1 week after RMD3
# Method: Activation of T cells was determined based upon HLA-DR expression on CD3^+ T cells. Cryopreserved PBMC were thawed, and 1,000,000 cells were stained with CD3 APC-Cy7, CD4 FITC, CD8 BV510 and HLA-DR PECy7 (BioLegend #344818, 300538, 301048, and 307616, respectively). Cells were collected on an LSRII instrument (BD), and data analyzed according to the gating criteria shown in Supplementary Figure 1 using FlowJo 10 software.
# [2] = 5 mg/m^2 BSA i.v. over 4 hours; for RMD-PK AUC1, Med: plasma, AUC0-inf non-compartmental from simulated individual concentrations
# CD4+ T cells = conditions: median; 3 days after each RMD administration; not fully recovered by day 7 after RMD3
# HIV-1 [3] = type: in vivo, human
# HIV-1 [4] = type: in vivo, human; conditions: ultrasensitive single copy assay, during RMD1−2−3
# Method: To evaluate HIV-1 RNA below 20 copies/ml, 4–8 ml of plasma samples taken before (0 h) and at the end of each RMD infusion (4 h), at 8 and 24 h (+1 day) after RMD1, and 72 h (+3 days) and 7 days after RMD1−2−3 were ultracentrifugated at 170,000 g at 4°C for 30 min and viral RNA was extracted automatically using the m2000sp Abbot device. HIV-1 RNA copies were quantified using the Abbott Real-Time HIV-1 assay (Abbott Molecular Inc.) and in-house calibration curve sets as described ([38]). The limit of detection (2 HIV-1 RNA copies/mL) was calculated relative to the plasma volume.
# [5] = tested on: histone H3 acetylation in lymphocytes; type: in vivo, human; conditions: peripheral lymphocytes
# Method: The levels of histone H3 acetylation in lymphocytes (based on FSC/SCC scatter) were determined by flow cytometry from samples taken before (0 h) and at the end of each RMD infusion (RMD1−2−3) (4 h), at 8 and 24 h (+1 day) RMD1, and at 72 h (+3 days) and 7 days after (RMD1−2−3). Cryopreserverd PBMC were thawed 4 h before use, and 500,000 cells were blocked with 600 ul of PBS/10% FBS for 20 min and stained with polyclonal rabbit anti-acetyl histoneH3 (10 μg/ml, MerckMillipore #06–599) or normal rabbit serum (control stain, LifeTechnologies #10510) for 30 min. Cells were washed and subsequently incubated with donkey anti-rabbit IgG(H+L) (6 μg/mL, LifeTechnologies #A21206) for 30 min at room temperature in the dark. Cells were washed, re-suspended in 150 μl PBS and analyzed. ~50,000 events were acquired per sample. The median fluorescence intensity (MFI) for each sample was calculated by substracting the background MFI (isotype control stain) from the anti-acetyl histoneH3 stain.
compound,measurement,setting,value
"C/C=C1\NC(=O)[C@H]2CSSCC/C=C/[C@H](CC(=O)N[C@H](C(C)C)C(=O)N2)OC(=O)[C@H](C(C)C)NC1=O [RMD, Romidepsin]",AE recorded after RMD1−2−3,[1],204 AE
same,"Abdominal distension, Grade 1 n",[1],4 n
same,"Abdominal distension, Grade 2 n",[1],1 n
same,"Abdominal distension, Grade 3 n",[1],0 n
same,"Abdominal distension, Grade 4 n",[1],0 n
same,"Abdominal distension, Total n (%)",[1],5 (33) n (%)
same,"Abdominal pain, Grade 1 n",[1],5 n
same,"Abdominal pain, Grade 2 n",[1],2 n
same,"Abdominal pain, Grade 3 n",[1],0 n
same,"Abdominal pain, Grade 4 n",[1],0 n
same,"Abdominal pain, Total n (%)",[1],7 (47) n (%)
same,"Anorexia, Grade 1 n",[1],8 n
same,"Anorexia, Grade 2 n",[1],1 n
same,"Anorexia, Grade 3 n",[1],0 n
same,"Anorexia, Grade 4 n",[1],0 n
same,"Anorexia, Total n (%)",[1],9 (60) n (%)
same,"Anxiety, Grade 1 n",[1],0 n
same,"Anxiety, Grade 2 n",[1],1 n
same,"Anxiety, Grade 3 n",[1],0 n
same,"Anxiety, Grade 4 n",[1],0 n
same,"Anxiety, Total n (%)",[1],1 (7) n (%)
same,"Constipation, Grade 1 n",[1],4 n
same,"Constipation, Grade 2 n",[1],2 n
same,"Constipation, Grade 3 n",[1],0 n
same,"Constipation, Grade 4 n",[1],0 n
same,"Constipation, Total n (%)",[1],6 (40) n (%)
same,"Dry mouth, Grade 1 n",[1],1 n
same,"Dry mouth, Grade 2 n",[1],0 n
same,"Dry mouth, Grade 3 n",[1],0 n
same,"Dry mouth, Grade 4 n",[1],0 n
same,"Dry mouth, Total n (%)",[1],1 (7) n (%)
same,"ECG: ST-elevation, Grade 1 n",[1],1 n
same,"ECG: ST-elevation, Grade 2 n",[1],0 n
same,"ECG: ST-elevation, Grade 3 n",[1],0 n
same,"ECG: ST-elevation, Grade 4 n",[1],0 n
same,"ECG: ST-elevation, Total n (%)",[1],1 (7) n (%)
same,"Fatigue, Grade 1 n",[1],9 n
same,"Fatigue, Grade 2 n",[1],5 n
same,"Fatigue, Grade 3 n",[1],0 n
same,"Fatigue, Grade 4 n",[1],0 n
same,"Fatigue, Total n (%)",[1],14 (93) n (%)
same,Grade 1-2 laboratory abnormalities related to RMD,[1],22 n
same,Grade 4 creatinine kinase elevation,[1],one
same,"Headache, Grade 1 n",[1],9 n
same,"Headache, Grade 2 n",[1],5 n
same,"Headache, Grade 3 n",[1],0 n
same,"Headache, Grade 4 n",[1],0 n
same,"Headache, Total n (%)",[1],14 (93) n (%)
same,Hypophosphatemia,[1],8 events
same,"Hypotension, Grade 1 n",[1],0 n
same,"Hypotension, Grade 2 n",[1],1 n
same,"Hypotension, Grade 3 n",[1],0 n
same,"Hypotension, Grade 4 n",[1],0 n
same,"Hypotension, Total n (%)",[1],1 (7) n (%)
same,"Individuals who vomited the days of RMD administration, percent",[1],27%
same,"Libido decrease, Grade 1 n",[1],0 n
same,"Libido decrease, Grade 2 n",[1],1 n
same,"Libido decrease, Grade 3 n",[1],0 n
same,"Libido decrease, Grade 4 n",[1],0 n
same,"Libido decrease, Total n (%)",[1],1 (7) n (%)
same,"Metallic taste, Grade 1 n",[1],5 n
same,"Metallic taste, Grade 2 n",[1],1 n
same,"Metallic taste, Grade 3 n",[1],0 n
same,"Metallic taste, Grade 4 n",[1],0 n
same,"Metallic taste, Total n (%)",[1],6 (40) n (%)
same,"Myalgia, Grade 1 n",[1],1 n
same,"Myalgia, Grade 2 n",[1],1 n
same,"Myalgia, Grade 3 n",[1],0 n
same,"Myalgia, Grade 4 n",[1],0 n
same,"Myalgia, Total n (%)",[1],2 (13) n (%)
same,"Nausea, Grade 1 n",[1],4 n
same,"Nausea, Grade 2 n",[1],7 n
same,"Nausea, Grade 3 n",[1],0 n
same,"Nausea, Grade 4 n",[1],0 n
same,"Nausea, Total n (%)",[1],11 (73) n (%)
same,"Palpitations, Grade 1 n",[1],3 n
same,"Palpitations, Grade 2 n",[1],0 n
same,"Palpitations, Grade 3 n",[1],0 n
same,"Palpitations, Grade 4 n",[1],0 n
same,"Palpitations, Total n (%)",[1],3 (20) n (%)
same,"Participants with grade 4 AE, sepsis by Shigella sonnei (SAE)",[1],One
same,"Rash, Grade 1 n",[1],0 n
same,"Rash, Grade 2 n",[1],2 n
same,"Rash, Grade 3 n",[1],0 n
same,"Rash, Grade 4 n",[1],0 n
same,"Rash, Total n (%)",[1],2 (13) n (%)
same,"Sepsis by Shigella sonnei (SAE), Grade 1 n",[1],0 n
same,"Sepsis by Shigella sonnei (SAE), Grade 2 n",[1],0 n
same,"Sepsis by Shigella sonnei (SAE), Grade 3 n",[1],0 n
same,"Sepsis by Shigella sonnei (SAE), Grade 4 n",[1],1 n
same,"Sepsis by Shigella sonnei (SAE), Total n (%)",[1],1 (7) n (%)
same,"Somnolence, Grade 1 n",[1],1 n
same,"Somnolence, Grade 2 n",[1],0 n
same,"Somnolence, Grade 3 n",[1],0 n
same,"Somnolence, Grade 4 n",[1],0 n
same,"Somnolence, Total n (%)",[1],1 (7) n (%)
same,"Sweating, Grade 1 n",[1],2 n
same,"Sweating, Grade 2 n",[1],2 n
same,"Sweating, Grade 3 n",[1],0 n
same,"Sweating, Grade 4 n",[1],0 n
same,"Sweating, Total n (%)",[1],4 (27) n (%)
same,Thrombocytopenia,[1],5 events
same,Tolerability at the regimen and dose administered,[1],well-tolerated
same,"Vomits, Grade 1 n",[1],4 n
same,"Vomits, Grade 2 n",[1],0 n
same,"Vomits, Grade 3 n",[1],0 n
same,"Vomits, Grade 4 n",[1],0 n
same,"Vomits, Total n (%)",[1],4 (27) n (%)
same,T-cell activation (proportion of CD3+/HLA-DR+ cells),CD3+ T cells,increased in a progressive manner
same,"RMD-PK AUC1, Med",[2]; MAP - Controllers (n=3),473.5
same,"RMD-PK AUC1, Med",[2]; MAP - Non Controllers (n=10),392.9
same,RMD concentrations in plasma by 24 h after dosing,"[2]; individual profiles simulated with population PK model, LC-MS/MS",nearly undetectable levels
same,Transient decrease of CD4+ T-cell counts,CD4+ T cells,248 cells/mm^3
same,Individuals with increases in CA HIV-1 RNA above 2-fold,HIV-1 [3]; at any time point after RMD administrations,80%
same,HIV-1 transcription (cell-associated HIV-1 RNA),"HIV-1 [3]; peripheral CD4+ T cells, normalized to TBP, relative to pre-RMD1, more pronounced after RMD2 and RMD3",transiently increased
same,Median increase of viral expression (CA HIV-1 RNA) at the end of each RMD infusion,"HIV-1 [3]; without correction by housekeeping gene, relative to before RMD1, normalization beyond 4 hours",higher than 2.5 fold
same,Kinetics of plasma HIV-1 RNA levels,HIV-1 [4],did not follow a clear pattern
same,Time of return of acH3 to baseline values after each dose,[5]; flow cytometry,3 days
same,Histone H3 acetylation (acH3) during each RMD infusion,"[5]; flow cytometry MFI, remained high during 4 h",increased rapidly
